Measurements: patent US20260217661A1, “TREATMENTS FOR PAIN” (Sevenless Therapeutics Limited, priority 2023, published 2026)

Target: T1, KRAS WT/SOS1 (Homo sapiens, UniProt Q07889)
T1 sequence (Q07889 1-1333): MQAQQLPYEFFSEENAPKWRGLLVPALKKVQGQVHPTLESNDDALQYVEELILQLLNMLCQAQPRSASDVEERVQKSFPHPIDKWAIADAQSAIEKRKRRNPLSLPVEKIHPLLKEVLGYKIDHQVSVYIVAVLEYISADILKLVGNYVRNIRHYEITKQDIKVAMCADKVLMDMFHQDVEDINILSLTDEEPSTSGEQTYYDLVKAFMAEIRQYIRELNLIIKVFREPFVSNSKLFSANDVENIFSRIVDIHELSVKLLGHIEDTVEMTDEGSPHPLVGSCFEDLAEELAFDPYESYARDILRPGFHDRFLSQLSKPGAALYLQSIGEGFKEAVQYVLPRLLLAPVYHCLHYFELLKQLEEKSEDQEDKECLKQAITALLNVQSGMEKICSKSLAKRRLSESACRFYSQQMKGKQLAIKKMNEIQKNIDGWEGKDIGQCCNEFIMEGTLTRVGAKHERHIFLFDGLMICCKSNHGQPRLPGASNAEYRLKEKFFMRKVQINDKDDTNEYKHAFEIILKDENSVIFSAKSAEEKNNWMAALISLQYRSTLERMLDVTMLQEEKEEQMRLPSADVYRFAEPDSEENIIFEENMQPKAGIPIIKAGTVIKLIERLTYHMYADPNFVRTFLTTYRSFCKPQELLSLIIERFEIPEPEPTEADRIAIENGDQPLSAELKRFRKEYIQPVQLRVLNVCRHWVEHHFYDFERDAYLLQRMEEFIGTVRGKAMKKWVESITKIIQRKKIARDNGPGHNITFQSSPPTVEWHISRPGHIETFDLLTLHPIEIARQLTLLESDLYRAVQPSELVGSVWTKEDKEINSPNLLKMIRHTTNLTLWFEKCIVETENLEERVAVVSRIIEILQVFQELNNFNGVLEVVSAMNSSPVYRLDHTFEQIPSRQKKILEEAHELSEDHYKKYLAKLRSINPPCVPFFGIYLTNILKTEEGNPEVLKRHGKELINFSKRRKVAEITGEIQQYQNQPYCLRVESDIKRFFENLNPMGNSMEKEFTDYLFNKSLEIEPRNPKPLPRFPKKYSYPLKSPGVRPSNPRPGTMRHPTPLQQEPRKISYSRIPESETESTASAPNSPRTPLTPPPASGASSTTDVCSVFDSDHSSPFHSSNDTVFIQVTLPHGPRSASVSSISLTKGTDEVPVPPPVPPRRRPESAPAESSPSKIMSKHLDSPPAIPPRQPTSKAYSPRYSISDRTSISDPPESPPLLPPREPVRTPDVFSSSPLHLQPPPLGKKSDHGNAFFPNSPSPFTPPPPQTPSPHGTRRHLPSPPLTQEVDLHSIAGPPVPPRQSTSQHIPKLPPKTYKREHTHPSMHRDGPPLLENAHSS
Experiment: HTRF KRAS WT/SOS1 PPI kit (Cisbio) screen for SOS1 inhibitors
Assay type: binding
Details: HTRF KRAS WT/SOS1 PPI assay, 10-point dilution series starting at 10 μM, 60 minutes incubation
Experimental: Compounds were screened using an HTRF KRAS WT/SOS1 PPI kit provided by Cis bio, according to the manufacturer's instructions, with the modifications described below. All reagents were allowed to equilibrate to room temperature and diluted to working stock in Binding Domain Detection buffer (BDD buffer). Stock solutions were prepared by adding 1 part Tag1-KRAS WT/GTP to 1 part Tag2-SOS1 and 1 part BDD. Separately, 1 part Anti-Tag1 XL665 antibody premix was added to Anti-Tag2 Tb cryptate antibody premix. BI-3406 (Selleck Chemicals) was used as a standard, solubilised to 10 mM in DMSO. Test compounds were also solubilised to 10 mM in DMSO. […] Per well, 6 uL of Tag1-KRAS WT/GTP premix, 4 ul Tag2-SOS1 premix and 10 μl of Anti-Tag1 XL665 and Anti-Tag2 Tb cryptate antibodies were then added using a E1-ClipTip™ Electronic Adjustable Multichannel Equalizer Pipette. After the final addition, the plate was covered and placed in the benchtop incubator set at 22° C. The reaction was incubated for 60 minutes at room temperature, prior to reading using a Pherastar FSX plate reader.

IC50: < 100 nM
Structure (SMILES): COc1cc2nncc(N[C@H](C)c3cccc(C(F)F)c3F)c2cc1N1CC2CC(C1)O2 [Example-8, 6-(6-oxa-3-azabicyclo [3.1.1]heptan-3-yl)-N—((R)-1-(3-(difluoromethyl)-2-fluorophenyl)ethyl)-7-methoxycinnolin-4-amine]
